Test results published in patent US9751861B2, “N1-(3,3,3-trifluoro-2-hydroxo-2-methylpropionyl)-piperidine derivatives as inhibitors of pyruvate dehydrogenase kinase” (MERCK PATENT GMBH, priority 2013, dated 2017).

Assays:
[1] = target: T1, PDHK2 (Homo sapiens, UniProt Q15119); assay: Biochemical activity testing of PDHK2: PDC inactivation assay; details: human rec PDHK2, PDC from porcine heart, ATP 5 μM; read-out: IC50 PDHK2 (enzyme assay)
T1 construct: purchased Carna Bioscience
Method in brief: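 Human recombinant PDHK2 (137 nM final) preincubated 30 min at RT with porcine heart PDC (20 mU/ml) and compound in pH 7.0 phosphate buffer, then phosphorylated with 5 μM ATP for 30 min at 37 °C. Residual PDC activity read as NADH fluorescence increase (Ex 340/Em 450) over 45 min; inhibitor-free reaction as full value, 3 mM DCA as zero, IC50 derived.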

[2] = target: T2, human PDHK2 (12-407) (Homo sapiens, UniProt Q15119); assay: Isothermal titration calorimetry (ITC) binding; details: 30° C., pH 7.5
T2 construct: The human PDHK2 (12-407) was produced in E. coli; His-tag (cleaved yes); made in house; host or cells: E. coli
Method in brief: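 Untagged PDHK2 (12-407) from E. coli at 50 μM titrated into 5 μM compound at 30° C in pH 7.5 HEPES/KCl/MgCl2/phosphate buffer, ≤1% DMSO. One-site fit gave KA, ΔH^obs and N after heat-of-dilution correction; protein concentration referenced to a standard inhibitor and compound concentration adjusted to 1:1 stoichiometry.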

[3] = test system: PDH-Elalpha (pSer300); assay: Cellular immunofluorescence assay in HEK293T cells; assay type: cell-based; details: Homo sapiens, HEK-293T, 5 hours incubation, anti-PDH-E1alpha pSer300 immunofluorescence, read-out: IC50 (cell data)
Description: Cellular Assay for Determination of Compound Activities
Compound activities were determined in a cellular immunofluorescence assay. Human HEK293T cells were seeded into black 384-well plates with clear bottom and grown overnight.
Next day, test compounds were added to the wells and the plates incubated for 5 hours. Following this, cells were fixed with formaldehyde, permeabilised and blocked. The primary antibody, Anti-PDH-Elalpha (pSer300), AP1064 (Merck Millipore) was added and incubated overnight in the plate wells. Next, cells were washed and the seconday antibody, Alexa Fluor 488, goat anti-rabbit ab (A-11008, Invitrogen) was added together with Hoechst 33258 (H3569, Invitrogen) and incubated for 1 hour in the plate wells. Finally, cells were washed and the plates were measured on the laser scanning cytometer acumen hci (TTpLabtech).
The raw data were normalized against a pharmacological inhibitor control and dose response curves were generated by plotting the percent effect values using the software package Genedata screener (Genedata).

Compound	IC50 [1]	Kd [2]	IC50 [3]
C[C@@](O)(C(=O)N1CCC(c2ccnn2-c2ccc(F)cc2)CC1)C(F)(F)F [Compound A14, (R)-3,3,3-Trifluoro-1-{4-[2-(4-fluoro-phenyl)-2H-pyrazol-3-yl]-piperidin-1-yl}-2-hydroxy-2-methyl-propan-1-one]	< 0.3 µM	< 0.3 µM	0.3 to 3 µM
C[C@@](O)(C(=O)N1CCC(c2ccnn2-c2cccc(F)c2)CC1)C(F)(F)F [Compound A10, (R)-3,3,3-Trifluoro-1-{4-[2-(3-fluoro-phenyl)-2H-pyrazol-3-yl]-piperidin-1-yl}-2-hydroxy-2-methyl-propan-1-one]	< 0.3 µM	< 0.3 µM	0.3 to 3 µM
CC1CN(C(=O)[C@@](C)(O)C(F)(F)F)CCC1c1ccn(-c2ccc(F)cc2)n1 (stereo partly drawn) [Compound A44, (R)-1-{4-[1-(4-Fluoro-phenyl)-1H-pyrazol-3-yl]-3-methyl-piperidin-1-yl}-3,3,3-trifluoro-2-hydroxy-2-methyl-propan-1-one]	0.3 to 3 µM	< 0.3 µM	0.3 to 3 µM
C[C@@](O)(C(=O)N1CCC(c2ccnn2-c2ccc(C(F)(F)F)cc2Cl)CC1)C(F)(F)F [Compound A18, (R)-1-{4-[2-(2-Chloro-4-trifluoromethyl-phenyl)-2H-pyrazol-3-yl]-piperidin-1-yl}-3,3,3-trifluoro-2-hydroxy-2-methyl-propan-1-one]	< 0.3 µM	< 0.3 µM	0.3 to 3 µM
C[C@@](O)(C(=O)N1CCC(c2ccnn2Cc2ccccc2)CC1)C(F)(F)F [Compound A38, (R)-1-[4-(2-Benzyl-2H-pyrazol-3-yl)-piperidin-1-yl]-3,3,3-trifluoro-2-hydroxy-2-methyl-propan-1-one]	0.3 to 3 µM	< 0.3 µM	0.3 to 3 µM

The next lines start with the values.

IC50 [1]	Kd [2]	IC50 [3]	Compound
< 0.3 µM	< 0.3 µM	< 0.3 µM	C[C@@H]1CN(C(=O)[C@@](C)(O)C(F)(F)F)CC[C@@H]1c1ccnn1-c1ccc(C#N)cc1 [Compound A111, 4-{5-[(3S,4S)-3-Methyl-1-((R)-3,3,3-trifluoro-2-hydroxy-2-methyl-propionyl)piperidin-4-yl]-pyrazol-1-yl}-benzonitrile]
0.3 to 3 µM	< 0.3 µM	0.3 to 3 µM	C[C@@](O)(C(=O)N1CCC(c2cncn2-c2ccc(C(F)(F)F)cc2)CC1)C(F)(F)F [Compound A127, (R)-3,3,3-Trifluoro-2-hydroxy-2-methyl-1-{4-[3-(4-trifluoromethyl-phenyl)-3H-imidazol-4-yl]-piperidin-1-yl}-propan-1-one]
0.3 to 3 µM	< 0.3 µM	3 to 50 µM	C[C@@](O)(C(=O)N1CCC(c2ccnn2-c2ccc(C(F)(F)F)nc2)CC1)C(F)(F)F [Compound A80, (R)-3,3,3-Trifluoro-2-hydroxy-2-methyl-1-[4-[2-[6-(trifluoromethyl)-3-pyridyl]-2H-pyrazol-3-yl]-1-piperidyl]propan-1-one]
0.3 to 3 µM	0.3 to 3 µM	3 to 50 µM	COc1ccc(-n2nncc2C2CCN(C(=O)[C@@](C)(O)C(F)(F)F)CC2)cc1 [Compound A57, (R)-3,3,3-Trifluoro-2-hydroxy-1-{4-[3-(4-methoxy-phenyl)-3H-[1,2,3]triazol-4-yl]-piperidin-1-yl}-2-methyl-propan-1-one]
< 0.3 µM	< 0.3 µM	0.3 to 3 µM	COc1ccc(-n2nccc2C2CCN(C(=O)[C@@](C)(O)C(F)(F)F)CC2)cc1Cl [Compound A48, (R)-3,3,3-Trifluoro-2-hydroxy-1-{4-[2-(3-chloro-4-methoxy-phenyl)-2H-pyrazol-3-yl]-piperidin-1-yl}-2-methyl-propan-1-one]
< 0.3 µM	< 0.3 µM	0.3 to 3 µM	C[C@@](O)(C(=O)N1CCC(n2ccnc2-c2ccc(Cl)cc2)CC1)C(F)(F)F [Compound A62, (R)-1-{4-[2-(4-Chloro-phenyl)-imidazol-1-yl]-piperidin-1-yl}-3,3,3-trifluoro-2-hydroxy-2-methyl-propan-1-one]
